Assay results published in patent US11576978B2, “Hemoglobin-based therapeutic agents” (priority 2019, dated 2023).

How the values were obtained:
[1] = Biodistribution of AF750-labeled agents in normal mice; format: in vivo, normal BALB/c mice; conditions: 72 h post-injection, 40 mg/kg intravenously
Method: Biodistribution of Hb-SMCC-DM1 (Prepared using one-step method in Example 5, MDR of 3.0) in normal mice is performed by using normal mice model. Briefly, normal BALB/c mice are injected intravenously with 40 mg/kg of Hb-AF750 and Hb-SMCC-DM1-AF750, respectively, and imaged serially from 2 hour to 72 hour post-injection. The mice are sacrificed at 72 hour of drug administration to collect various kinds of organ for imaging.

cancer cell lines = assay: MTT cytotoxicity assay on cancer cell lines; format: cell-based; conditions: various cancer cells
Method: Cancer cells are cultured in medium (Invitrogen) with 10% Fetal bovine serum (FBS), 100 U/mL penicillin and 100 μg/mL streptomycin at 37° C. For normoxic condition, cells are incubated with ambient O2 concentration and 5% CO2, for hypoxic condition, cells are incubated with 0.1-0.5% O2 (Quorum FC-7 automatic CO2/O2/N2 gas mixer) and 5% CO2.
Cell viability is measured using a 3-(4,5-dimethylthiazol-2-yl)-2,5-diphenyltetrazolium bromide (MTT) proliferation assay. Briefly, cancer cell lines (e.g. HCT116, 4T1, and SMMC7721) are seeded in a 96-well flat-bottomed microplate and cultured in 100 μL growth medium at 37° C. and 5% CO2 for 24 h. Cell culture medium in each well is then replaced by 100 μL cell growth medium, containing either no drug, DM1 alone or modified hemoglobin-based cytotoxic agents at series concentrations. Incubation of drugs for 24 h, cell culture medium containing drugs is replaced by 100 μL MTT labeling reagent (1 mg/mL in PBS solution) in each well and incubation for further 4 h at 37° C. The medium is removed gently, and 50 μL DMSO is then added to each well as solubilizing agent to dissolve the formazan crystals completely. The absorbance at the wavelength of 570 nm is measured by iMark Microplate Absorbance Spectrophotometer, and each data point represents the means±SD from triplicate wells.

[2] = Preliminary repeat-dose toxicity in normal mice; format: in vivo; conditions: weekly, four IV doses, BALB/c mice
Method: The toxicity of Hb-SMCC-DM1 with an (Prepared using one-step method in Example 5, MDR of 3.0) is evaluated in repeat-dose study in normal BALB/c mice. Briefly, mice (n=3, females/group) are administered with unconjugated-DM1 and Hb-SMCC-DM1 weekly for a total of four IV doses at PBS, 2.5 mg/kg of unconjugated-DM1, and 42, 84, 126, and 168 mg/kg of Hb-SMCC-DM1, respectively. Body weights are recorded at every 3 days.

Molecule | location of fluorescence signal (biodistribution) [1] | IC50 (cancer cell lines) [µM] | tolerated dose [2]
hemoglobin | mainly in liver and kidney | > 10 | 
COc1cc2cc(c1Cl)N(C)C(=O)C[C@H](OC(=O)[C@H](C)N(C)C(=O)CCS)[C@]1(C)O[C@H]1[C@H](C)[C@@H]1C[C@@](O)(NC(=O)O1)[C@H](OC)/C=C/C=C(\C)C2 [unconjugated-DM1, mertansine (DM1)] |  |  | up to 2.5 mg/kg
